Data as given in US20210246502A1, “RAPID IDENTIFICATION OF STRAINS FROM SEQUENCE DATA” (priority 2018, published 2021).

Experiments:
N. gonorrhoeae [1] = format: cell-based, Neisseria gonorrhoeae; details: out of all 1102 gonococcal isolates; ancestral reconstruction only for cefixime
Source text: (§1) For all antibiotics, RASE associates individual isolates with a resistance category, susceptible or non-susceptible. First, MIC values are mined using regular expressions from the available textual antibiograms, i.e., strings describing an interval of possible MIC values. Second, the acquired intervals are compared to the antibiotic-specific breakpoints (FIG. 6). If a given breakpoint is above or below the interval, susceptibility or non-susceptibility is reported, respectively. However, no category can be assigned at this step if the breakpoint lies within the extracted interval, an antibiogram is entirely missing, or an antibiogram is present, but parsing failed. Third, missing categories are inferred using ancestral state reconstruction on the associated phylogenetic tree while maximizing parsimony (i.e., minimizing the number of nodes switching its resistance category; FIG. 7).
(§2) The pneumococcal RASE database was constructed with the standard EUCAST breakpoints^16 ([g/ml]): benzylpenicillin (PEN): 0.06, ceftriaxone (CRO): 0.25, trimethoprim-sulfamethoxazole (SXT): 1.00, erythromycin (ERY): 0.25, and tetracycline (TET): 1.00. The gonococcal RASE database was constructed with the CDC GISP breakpoints ([g/ml]): azithromycin (AZM): 2.0, cefixime (CFM): 0.25, ciprofloxacin (CIP): 1.0, and ceftriaxone (CRO): 0.125. While the Inventors have used the above values in the present work, others may be readily defined and the database rapidly updated.
(§3) The Inventors assigned each pneumococcal and gonococcal isolate to an antibiotic-specific resistance category using the EUCAST breakpoints and CDC GISP breakpoints, respectively. Since MIC data were not always available, the Inventors estimated the likely resistance phenotype of unannotated isolates using ancestral state reconstruction.

S. pneumoniae [2] = experiment: Resistance categories of pneumococcal RASE database isolates (MIC vs EUCAST breakpoints, ancestral state reconstruction); format: cell-based, Streptococcus pneumoniae; details: for resistance phenotype of best match database isolate: best match in the Massachusetts RASE database for SP03 and SP06; for number of isolates susceptible: out of all 616 pneumococcal isolates, includes categories inferred by ancestral state reconstruction
Source text: as §1, with “(see below).” for “(FIG. 6).”, “category).” for “category; FIG. 7).”
The RASE database is constructed with the standard EUCAST breakpoints ([g/ml]): Benzylpenicillin (PEN): 0.06, Ceftriaxone (CRO): 0.25, […]: 1.00, Erythromycin (ERY): 0.25, and Tetracycline (TET): 1.00. The breakpoints are set conservatively, i.e., non-susceptibility is preferred over susceptibility for intermediate values. While the Inventors have used the above values in the present work, others may be readily defined and the database rapidly updated.
as §1, §2, §3

N. gonorrhoeae [3] = experiment: MIC of gonococcal isolates against CDC GISP breakpoint; format: cell-based, Neisseria gonorrhoeae; set-up: unit not given beside the values
Source text: as §2, with “updated. This is especially useful in the case where breakpoints may vary depending on the site of infection (as is the case with pneumococcal meningitis and otitis media, where lower MICs are considered to be resistant).” for “updated.”

S. pneumoniae [4] = experiment: Resistance of streptococcus in metagenomic sputum samples by agar diffusion, EUCAST methodology and breakpoints; format: cell-based, Streptococcus pneumoniae; details: metagenomic sputum sample SP10 (Swedish 15A clone, ST63)
Description: Resistance of streptococcus in the metagenomic samples (SP07-SP12) was determined by agar diffusion using the EUCAST methodology and breakpoints. First, the inoculated agar plates were incubated at 37° C. overnight and then examined for growth with the potential for re-incubation up to 48 hours. Then, the samples were screened to oxacillin: if the zone diameter r was >20 mm, the isolate was considered sensitive to benzylpenicillin, otherwise a full MIC measurement to benzylpenicillin was done.

S. pneumoniae [5] = experiment: Antibiograms of additional pneumococcal isolates not in the RASE database, EUCAST breakpoints; format: cell-based, Streptococcus pneumoniae; details: 23F isolates SP03 and SP06, related to Tennessee 23F-4 clone
Source text: The Inventors examined four additional pneumococcal isolates (FIG. 14b) for which the serotype and limited antibiogram and lineage data were known. The Inventors compared three characteristics of the sample to assess the Inventors' performance: the serotype, the MLST sequence type (ST) and the antibiograms (benzylpenicillin, ceftriaxone, trimethoprim-sulfamethoxazole, erythromycin, and tetracycline resistance according to EUCAST breakpoints).

**Q.** For `CC[C@H]1OC(=O)[C@H](C)[C@@H](O[C@H]2C[C@@](C)(OC)[C@@H](O)[C@H](C)O2)[C@H](C)[C@@H](O[C@@H]2O[C@H](C)C[C@H](N(C)C)[C@H]2O)[C@](C)(O)C[C@@H](C)CN(C)[C@H](C)[C@@H](O)[C@]1(C)O` [azithromycin], which “number of isolates associated with resistance” value (shortened to “number of isolates associated”) (N. gonorrhoeae [1]) is on record?
**A.** 232

**Q.** Which “resistance phenotype of best match database isolate” value (S. pneumoniae [2]) does the source give for `CC1(C)S[C@@H]2[C@H](NC(=O)Cc3ccccc3)C(=O)N2[C@H]1C(=O)O` [benzylpenicillin] here?
**A.** resistant

**Q.** What about the “number of isolates susceptible” value (S. pneumoniae [2]) of the same compound?
**A.** 341

**Q.** Which “number of isolates associated” value (N. gonorrhoeae [1]) does the source give for `C=CC1=C(C(=O)O)N2C(=O)[C@@H](NC(=O)/C(=N\OCC(=O)O)c3csc(N)n3)[C@H]2SC1` [cefixime] here?
**A.** 266

**Q.** Which results are given for `CO/N=C(\C(=O)N[C@@H]1C(=O)N2C(C(=O)O)=C(CSc3nc(=O)c(=O)[nH]n3C)CS[C@H]12)c1csc(N)n1` [ceftriaxone]?
**A.** MIC (N. gonorrhoeae [3]; best match of GC05 in the RASE database): 0.062; MIC (N. gonorrhoeae [3]; multi-drug resistant isolate GC05, equal to CDC GISP breakpoint): 0.125; number of isolates associated with resistance (N. gonorrhoeae [1]): 69; number of isolates susceptible (S. pneumoniae [2]): 485

**Q.** Which “number of isolates associated” value (N. gonorrhoeae [1]) does the source give for `O=C(O)c1cn(C2CC2)c2cc(N3CCNCC3)c(F)cc2c1=O` [ciprofloxacin] here?
**A.** 594

**Q.** What does the source list for `CC[C@H]1OC(=O)[C@H](C)[C@@H](O[C@H]2C[C@@](C)(OC)[C@@H](O)[C@H](C)O2)[C@H](C)[C@@H](O[C@@H]2O[C@H](C)C[C@H](N(C)C)[C@H]2O)[C@](C)(O)C[C@@H](C)C(=O)[C@H](C)[C@@H](O)[C@]1(C)O` [erythromycin]?
**A.** resistance phenotype of sample (S. pneumoniae [4]): resistant; resistance phenotype of best match database isolate (S. pneumoniae [2]): susceptible; number of isolates susceptible (S. pneumoniae [2]): 484; resistance phenotype of samples (S. pneumoniae [5]): resistant

**Q.** With `Cc1onc(-c2ccccc2)c1C(=O)N[C@@H]1C(=O)N2[C@@H]1SC(C)(C)[C@@H]2C(=O)O` [oxacillin] as the compound, how does the “resistance phenotype of sample” value (S. pneumoniae [4]) read?
**A.** resistant

**Q.** For `CN(C)[C@@H]1C(O)=C(C(N)=O)C(=O)[C@@]2(O)C(O)=C3C(=O)c4c(O)cccc4[C@@](C)(O)[C@H]3C[C@@H]12` [tetracycline], which “number of isolates susceptible” value (S. pneumoniae [2]) is on record?
**A.** 551

**Q.** For `COc1cc(Cc2cnc(N)nc2N)cc(OC)c1OC` [trimethoprim, Trimethoprim], which “number of isolates susceptible” value (S. pneumoniae [2]) is on record?
**A.** 480

**Q.** How did the “number of isolates susceptible” value (S. pneumoniae [2]) turn out when trimethoprim-sulfamethoxazole was run?
**A.** 480
